“Also recorded” adds a separate entry of the source. Where two headings read alike, the source gives them in different places.
Key:
[1] = system: male Sprague-Dawley rats with steatosis, induced by choline and methionine deficient (MCD) diet; assay: Development of liver weight versus body weight; format: in vivo; details: LE 10% without or with choline derivative "high": 31 mmol/L
Source text: The effects of GPC as well as of the combination of DHA, ARA and GPC were investigated in a sick animal model, wherein male Sprague-Dawley rats with steatosis, induced by choline and methionine deficient (MCD) diet (S SNIFF MCD pelleted choline/methionine deficient diet (SSNIFF Spezialdiäten GmbH, Soest, Germany, Product No. E15653-94)) were kept on parenteral nutrition.
Parenteral nutrition started after 14 days under MCD diet. First measurements were done after 5 days of parenteral nutrition, followed by measurements after 9 and 17 days. The daily lipid uptake was 2.31 g/kg/d. The rats were split into several groups as set forth below in Table I.
The study groups as described in Example 1 were further evaluated with regard to the development of liver weight versus body weight. An increase in liver weight which is not proportional to the increase of body weight is typical for the development of liver damage, specifically steatosis, as described before.

[2] = system: male Sprague-Dawley rats with steatosis, induced by choline and methionine deficient (MCD) diet; assay: Histopathological grading of hepatocellular vacuolation of the liver; format: in vivo; details: for histopathological examination of the liver, vacuolation (FIG. 4A): Step #2
Procedure: A part of the liver was preserved in buffered formalin, the infusion sites and the sampled macroscopic lesions were trimmed according to the RITA guidelines, where applicable (Ruchl-Fehlert et al., Exp Toxic Pathol 2003; 5 5, 91-106), embedded in paraffin wax, sectioned at a thickness of approximately four microns and stained with hematoxylin-eosin. The frozen liver sample was cryosectioned in slides of approximately five microns and stained by Oil Red O. Tissue processing was performed at Citoxlab, France.
A microscopic examination was performed on both slides (hematoxylin eosin and Oil Red O) of the liver, the infusion sites and the macroscopic lesions from all animals of the study. Peer review was performed on at least 30% of the animals from the high-dose group and on an adequate number of slides from identified target organs to confirm that findings recorded by the Study Pathologist were consistent and accurate.
Liver samples taken after 8 and 15 days, respectively, were examined as described above and assigned to five grades of hepatocellular vacuolation. Vacuolation was generally diffuse and affected all regions for Grade 5. Periportal areas were lesser affected and the vacuoles were smaller in size for lower grades. Grades have been assigned according to the following definition:

[3] = for Stability upon sterilization (Comment): heat sterilization; for stability of the lipid emulsions during sterilization (heat), in words: lipid emulsions prepared as in Example 1 containing the choline derivative
Procedure: The choline derivative supplemented “LE” lipid emulsions were prepared as follows. In a first step, raw phases are heated up. In case of the oil phase, soybean and olive oils and egg phosphatide as well as DHA and ARA oils and vitamin E in case of Step #3 experiments are heated in an inox beaker to 75° C. under N2 protection while continuously agitating using an ULTRA TURRAX®. The aqueous phase was prepared by mixing glycerol, sodium oleate and Milli-Q water and constantly heated in an inox beaker to about 75° C. under N2 protection. Where needed, the choline derivative is added under constant agitation. In a second step, the pre-emulsion is prepared by adding the oily phase to the aqueous phase using a peristaltic pump under continuous agitation and then transferred to a high shear inline disperser (e.g. DISPAX REACTOR® DR). The receiving vessel is closed and flushed with nitrogen. In a third step the pre-emulsion is homogenized by passing it several times through a high-pressure homogenizer at 600 bar and a temperature of about 50° C., under a N2 atmosphere.
The emulsion is then adjusted to the required volume (2 L) with Milli-Q water and cooled down to a temperature of approximately 18 to 28° C., preferably 20° C. to 25° C. The pH is adjusted to a range of from 7.8 to 8.8, preferably to about 8.3 to 8.8 with 0.IN NaOH. The emulsion is filtered with a 4.5 μm filter and transferred in 100 mL bags, which are then overpouched, making use of an oxygen absorber/indicator, for later use. The lipid emulsion is then autoclaved at 121° C. to achieve a F0 of at least 15 minutes.

[4] = system: male Sprague-Dawley rats with steatosis, induced by choline and methionine deficient (MCD) diet; assay: Aminotransferase (ALT) activity in plasma during parenteral nutrition; format: in vivo; details: for development of ALT activity from day 5 to day 17 (FIG. 2): Step #2, LE 10% without or with choline derivative "high" 31 mmol/L, plasma after 5 and 17 days of parenteral nutrition
Procedure: ALT activity is determined by a modification recommended by the International Federation of Clinical Chemistry (IFCC), see also Example 2. ALT catalyzes the reaction of alpha-ketoglutarate with L-alanine to form L-glutamate and pyruvate. Under the action of LDH, pyruvate converts to lactate, and NADH is converted to NAD. The decrease in absorbance of NADH, measured at 340 nm (secondary wavelength is 700 nm), is directly proportional to the serum activity of ALT. It is a kinetic reaction. In general, serum is used for analysis. The serum is separated from the cells within 2 hours of collection and stored at -70° C. until assayed. Monitoring the ALT activity over time in an animal model is used herein as one straightforward and conclusive way to determine the efficacy of GPC in treating liver disease, specifically liver damage caused by a choline-deficient diet (Examples 1 and 2, FIGS. 2 and 3). The effects of GPC as well as of the combination of DHA, ARA and GPC were investigated in a sick animal model, wherein male Sprague-Dawley rats with steatosis, induced by choline and methionine deficient (MCD) diet (S SNIFF MCD pelleted choline/methionine deficient diet (SSNIFF Spezialdiäten GmbH, Soest, Germany, Product No. E15653-94)) were kept on parenteral nutrition. Steatosis was confirmed in the respective groups by histopathology (Example 3). Parenteral nutrition started after 14 days under MCD diet. First measurements were done after 5 days of parenteral nutrition, followed by measurements after 9 and 17 days. The daily lipid uptake was 2.31 g/kg/d. The rats were split into several groups as set forth below in Table I. Two groups served as control groups, wherein a first group was treated with saline solution (0.90% w/v of NaCl in water for injection). A second group received a lipid emulsion (“LE 10%”) containing refined olive oil (80.0 g/L) and refined soybean oil (20.0 g/L) in water for injection, pH 6-8; LE 10% further contained egg lecithin (6.0 g/L), glycerol (11.25 g/L) and sodium oleate (0.15 g/L). LE 10% contained 100 g/L lipids. […] CDP-choline (prepared by fermentation) was from TCI Europe N.V. (Antwerp, Belgium). […] DHA (from algae, Schizochytrium sp.) and ARA (from fungi, Mortierella alpina) were purchased from BASF AG, Germany. Vitamin E was purchased from […].) […] As described before, liver damage (cholestasis) may be determined by increased aminotransferase levels. ALT activity was determined with an AD VIA 1800 blood biochemistry analyzer/IFCC modified (SIEMENS®) according to standard protocols such as described before.

[5] = LE 10% with choline derivative alone (no DHA, ARA), high (31 mmol/L) and low (15 mmol/L) concentration

Compound	liver to body weight ratio in percent (FIG. 5) [1]	histopathological examination of the liver, vacuolation (FIG. 4A) ([2]; LE 10% with choline derivative alone, low concentration, 15 mmol/L)	Stability upon sterilization (Comment) ([3]; Concentration 30 mmol/L, lipid emulsion tested LE 10 %)	stability of the lipid emulsions during sterilization (heat), in words [3]	development of ALT activity from day 5 to day 17 (FIG. 2) [4]	histopathological examination of the liver, vacuolation (FIG. 4A) [2, 5]	Stability upon sterilization (Comment) ([3]; Concentration 15 mmol/L, lipid emulsions tested LE 10, 13, 20 %)	liver status of the animal, in words ([2]; After 15 days into parenteral nutrition, Step #3, LE 13%, versus saline solution)	Vacuolation; hepatocellular, Grade 2, number of animals ([2]; Day 8, Step #3, phytosterol depleted LE 13%, GPC 40 mmol/L where present, 5 animals per group, Grade 2 = slight/few/small vacuoles)	Vacuolation; hepatocellular, Grade 3, number of animals ([2]; Day 8, Step #3, phytosterol depleted LE 13%, GPC 40 mmol/L where present, 5 animals per group, Grade 3 = moderate vacuoles)	Vacuolation; hepatocellular, Grade 4, number of animals ([2]; Day 8, Step #3, phytosterol depleted LE 13%, GPC 40 mmol/L where present, 5 animals per group, Grade 4 = marked/many/large vacuoles)	Vacuolation; hepatocellular, Grade 5, number of animals ([2]; Day 8, Step #3, phytosterol depleted LE 13%, GPC 40 mmol/L where present, 5 animals per group, Grade 5 = severe, diffuse, all liver regions)	Stability upon sterilization (Comment) ([3]; Concentration 30 mmol/L, lipid emulsions tested LE 10, 20 %)	ALT activity, change in percent of the normal value for plasma (FIG. 3) ([4]; Step #3, LE 10% normal phytosterol without GPC, LE 10% + GPC 40 mmol/L, LE 13% reduced phytosterol + GPC 40 mmol/L)
C[N+](C)(C)CCOP(=O)(O)OP(=O)([O-])OC[C@H]1O[C@@H](n2ccc(N)nc2=O)[C@H](O)[C@@H]1O [CDP-choline, cytidine diphosphate-choline, reference compound]	reduction of the ratio	also had an effect	Phase separation	phase separation of the lipid emulsions during sterilization	neither significantly increases or decreases	–	–	–	–	–	–	–	–	–
C[N+](C)(C)CCO.[Cl-] [Choline Chloride, (2-Hydroxyethyl)trimethylammonium chloride, reference compound]	reduction of the ratio	–	–	phase separation of the lipid emulsions during sterilization	neither significantly increases or decreases	fared better than those with only saline or lipid emulsion without any choline derivative	Phase separation	–	–	–	–	–	–	–
C[N+](C)(C)CCOP(=O)([O-])OC[C@H](O)CO [GPC, glycerophosphocholine]	most pronounced reduction of the ratio	–	–	remained stable	clear drop in ALT activity; also recorded: most pronounced	most significant impact; also recorded: significantly better	–	clear and significant improvement of the liver status	one	one	Three	none	Stable emulsion	–
phosphatidylcholine	does not seem to have any effect	–	–	–	does not seem to have any effect	–	–	–	–	–	–	–	–	does not seem to have any effect

— patent publication US20260090983A1, “PARENTERAL NUTRITION FORMULATION” (Baxter International Inc., priority 2018, published 2026)
